Data as given in patent publication US20230114728A1 (Venatorx Pharmaceuticals, Inc., priority 2019, published 2023).
Converted amounts (≈) assume the structure as drawn.

How the values were obtained:
Experiment in all cases: Broth microdilution MIC in CAMHB
Format in all cases: cell-based
A. baumannii ATCC 19606 = details: Acinetobacter baumannii, ATCC19606; MHB; read-out: Minimum Inhibitory Concentration, A. baumannii ATCC 19606
Outline: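 CLSI microdilution; CAMHB; inoculum 2-8×10^5 CFU/mL from 3-5 h 37° C culture; 2-fold compound series; 16-20 h, 37° C; MIC = lowest well without visible growth.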

E. coli 901C = details: Escherichia coli; E. coli 901C (hyper-permeable); MHB; read-out: Minimum Inhibitory Concentration, E. coli 901C
Outline: (§1)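 Colonies from cation-adjusted Mueller Hinton agar are grown in broth (3-5 h, 37° C), adjusted by OD600, and added at 2-8×10^5 CFU/mL to 2-fold compound dilutions. After 16-20 h at 37° C, the lowest concentration without growth is taken as MIC.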

E. coli AG100A = details: Escherichia coli, read-out: Minimum Inhibitory Concentration, E. coli AG100A
Outline: as §1

E. coli AG100 = details: Escherichia coli; E. coli AG100 (wild-type parent); MHB; read-out: Minimum Inhibitory Concentration, E. coli AG100
Outline: as §1

E. coli ATCC 25922 = details: Escherichia coli, ATCC25922; E. coli ATCC 25922; MHB; read-out: Minimum Inhibitory Concentration, E. coli 25922
Outline: as §1

E. coli D22 = details: Escherichia coli; E. coli D22 (hyper-permeable); MHB; read-out: Minimum Inhibitory Concentration, E. coli D22
Outline: as §1

[1] = test system: K. pneumoniae 848844 producing SHV-11 and KPC-2; details: Klebsiella pneumoniae, read-out: Minimum Inhibitory Concentration, K. pneumoniae 848844
Outline: as §1

[2] = test system: K. pneumoniae SI-117 producing VIM-1; details: Klebsiella pneumoniae, read-out: Minimum Inhibitory Concentration, K. pneumoniae SI-117
Outline: as §1

[3] = test system: K. pneumoniae UMM producing SHV-5 and KPC-2; details: Klebsiella pneumoniae, read-out: Minimum Inhibitory Concentration, K. pneumoniae UMM
Outline: as §1

[4] = test system: P. aeruginosa (ΔmexAB-oprM); details: Pseudomonas aeruginosa, read-out: Minimum Inhibitory Concentration, P. aeruginosa ΔmexAB-OprM
Outline: as §1

P. aeruginosa ATCC 27853 = details: Pseudomonas aeruginosa, ATCC27853; MHB; read-out: Minimum Inhibitory Concentration, P. aeruginosa ATCC 27853
Outline: as §1

P. aeruginosa ATCC 35151 = details: Pseudomonas aeruginosa, ATCC35151; MHB; hyper-permeable strain; read-out: Minimum Inhibitory Concentration, P. aeruginosa ATCC 35151
Outline: as §1

Row | SMILES | MIC (A. baumannii ATCC 19606) [µg/mL] | MIC (E. coli 901C) [µg/mL] | MIC (E. coli AG100A) [µg/mL] | MIC (E. coli AG100) [µg/mL] | MIC (E. coli ATCC 25922) [µg/mL] | MIC (E. coli D22) [µg/mL] | MIC [1] [µg/mL] | MIC [2] [µg/mL] | MIC [3] [µg/mL] | MIC [4] [µg/mL] | MIC (P. aeruginosa ATCC 27853) [µg/mL] | MIC (P. aeruginosa ATCC 35151) [µg/mL]
1 | NCCN1CCN(C(=O)N[C@@H](C(=O)N[C@H]2Cc3cccc(C(=O)O)c3OB2O)c2ccc(O)cc2Cl)C(=O)C1=O (single isomer, unassigned) [Example 86] | > 128 | 2 to 4 (≈ 3.49 to 6.97 µM) | 2 to 4 (≈ 3.49 to 6.97 µM) | 32 to 64 (≈ 55.8 to 112 µM) | 32 to 64 (≈ 55.8 to 112 µM) | 8 to 16 (≈ 13.9 to 27.9 µM) | 32 to 64 (≈ 55.8 to 112 µM) | 32 to 64 (≈ 55.8 to 112 µM) | 32 to 64 (≈ 55.8 to 112 µM) | 8 to 16 (≈ 13.9 to 27.9 µM) | > 128 | 0.5 to 1 (≈ 0.871 to 1.74 µM)
2 | NCCN1CCN(C(=O)N[C@H](C(=O)N[C@H]2Cc3cccc(C(=O)O)c3OB2O)c2ccc(O)cc2F)C(=O)C1=O (single isomer, unassigned) [Example 88] | > 128 | 8 to 16 (≈ 14.4 to 28.7 µM) | 32 to 64 (≈ 57.4 to 115 µM) | > 128 | > 128 | 32 to 64 (≈ 57.4 to 115 µM) | > 128 | > 128 | > 128 | > 128 | > 128 | 2 to 4 (≈ 3.59 to 7.18 µM)
3 | NCCN1CCN(C(=O)N[C@@H](C(=O)N[C@H]2Cc3cccc(C(=O)O)c3OB2O)c2ccc(O)cc2F)C(=O)C1=O (single isomer, unassigned) [Example 89] | > 128 | 2 to 4 (≈ 3.59 to 7.18 µM) | 2 to 4 (≈ 3.59 to 7.18 µM) | 32 to 64 (≈ 57.4 to 115 µM) | 32 to 64 (≈ 57.4 to 115 µM) | 8 to 16 (≈ 14.4 to 28.7 µM) | 32 to 64 (≈ 57.4 to 115 µM) | 32 to 64 (≈ 57.4 to 115 µM) | 32 to 64 (≈ 57.4 to 115 µM) | 8 to 16 (≈ 14.4 to 28.7 µM) | > 128 | 0.5 to 1 (≈ 0.897 to 1.79 µM)
4 | CCN1CCN(C(=O)N[C@@H](C(=O)N[C@H]2Cc3cccc(C(=O)O)c3OB2O)c2cc(Cl)c(O)cc2Cl)C(=O)C1=O (single isomer, unassigned) [Example 91] | > 128 | < 0.25 | 2 to 4 (≈ 3.37 to 6.74 µM) | 8 to 16 (≈ 13.5 to 27 µM) | 32 to 64 (≈ 53.9 to 108 µM) | 2 to 4 (≈ 3.37 to 6.74 µM) | > 128 | > 128 | 32 to 64 (≈ 53.9 to 108 µM) | 32 to 64 (≈ 53.9 to 108 µM) | > 128 | 0.5 to 1 (≈ 0.843 to 1.69 µM)
5 | CCN1CCN(C(=O)N[C@H](C(=O)N[C@H]2Cc3cccc(C(=O)O)c3OB2O)c2cc(Cl)c(O)cc2Cl)C(=O)C1=O (single isomer, unassigned) [Example 92] | > 128 | 2 to 4 (≈ 3.37 to 6.74 µM) | > 128 | > 128 | > 128 | > 128 | > 128 | > 128 | > 128 | > 128 | > 128 | 8 to 16 (≈ 13.5 to 27 µM)
6 | CCN1CCN(C(=O)NC(C(=O)N[C@H]2Cc3ccc(F)c(C(=O)O)c3OB2O)c2ccc(C(=O)O)cc2)C(=O)C1=O (stereo partly drawn) [Example 15, (3R)-3-(2-(4-carboxyphenyl)-2-(4-ethyl-2,3-dioxopiperazine-1-carboxamido)acetamido)-7-fluoro-2-hydroxy-3,4-dihydro-2H-benzo[e][1,2]oxaborinine-8-carboxylic acid] | > 128 | 0.5 to 1 (≈ 0.877 to 1.75 µM) | 32 to 64 (≈ 56.1 to 112 µM) | > 128 | > 128 | 8 to 16 (≈ 14 to 28.1 µM) | > 128 | > 128 | > 128 | 8 to 16 (≈ 14 to 28.1 µM) | 32 to 64 (≈ 56.1 to 112 µM) | < 0.25
7 | CCN1CCN(C(=O)NC(C(=O)N[C@H]2Cc3cccc(C(=O)O)c3OB2O)c2ccc(O)c(NC(C)=O)c2)C(=O)C1=O (stereo partly drawn) [Example 17, (3R)-3-(2-(3-acetamido-4-hydroxyphenyl)-2-(4-ethyl-2,3-dioxopiperazine-1-carboxamido)acetamido)-2-hydroxy-3,4-dihydro-2H-benzo[e][1,2]oxaborinine-8-carboxylic acid] | > 128 | 0.5 to 1 (≈ 0.86 to 1.72 µM) | 8 to 16 (≈ 13.8 to 27.5 µM) | > 128 | > 128 | 2 to 4 (≈ 3.44 to 6.88 µM) | > 128 | > 128 | 32 to 64 (≈ 55 to 110 µM) | 8 to 16 (≈ 13.8 to 27.5 µM) | > 128 | 2 to 4 (≈ 3.44 to 6.88 µM)
8 | CCN1CCN(C(=O)NC(C(=O)N[C@H]2Cc3ccc(F)c(C(=O)O)c3OB2O)c2nc(N)sc2F)C(=O)C1=O (stereo partly drawn) [Example 18, (3R)-3-(2-(2-amino-5-fluorothiazol-4-yl)-2-(4-ethyl-2,3-dioxopiperazine-1-carboxamido)acetamido)-7-fluoro-2-hydroxy-3,4-dihydro-2H-benzo[e][1,2]oxaborinine-8-carboxylic acid] | > 128 | 0.5 to 1 (≈ 0.883 to 1.77 µM) | 2 to 4 (≈ 3.53 to 7.06 µM) | 32 to 64 (≈ 56.5 to 113 µM) | 8 to 16 (≈ 14.1 to 28.3 µM) | 2 to 4 (≈ 3.53 to 7.06 µM) | 32 to 64 (≈ 56.5 to 113 µM) | 32 to 64 (≈ 56.5 to 113 µM) | 8 to 16 (≈ 14.1 to 28.3 µM) | 8 to 16 (≈ 14.1 to 28.3 µM) | > 128 | 0.5 to 1 (≈ 0.883 to 1.77 µM)
9 | CCN1CCN(C(=O)N[C@H](C(=O)N[C@H]2Cc3cccc(C(=O)O)c3OB2O)c2nc(Cl)c(C(=O)O)cc2F)C(=O)C1=O [Example 19, 6-((S)-2-(((R)-8-carboxy-2-hydroxy-3,4-dihydro-2H-benzo[e][1,2]oxaborinin-3-yl)amino)-1-(4-ethyl-2,3-dioxopiperazine-1-carboxamido)-2-oxoethyl)-2-chloro-5-fluoronicotinic acid] | > 128 | 0.5 to 1 (≈ 0.825 to 1.65 µM) | 32 to 64 (≈ 52.8 to 106 µM) | > 128 | > 128 | 2 to 4 (≈ 3.3 to 6.6 µM) | > 128 | > 128 | > 128 | 32 to 64 (≈ 52.8 to 106 µM) | > 128 | 0.5 to 1 (≈ 0.825 to 1.65 µM)
10 | CCN1CCN(C(=O)NC(C(=O)N[C@H]2Cc3cccc(C(=O)O)c3OB2O)c2ncc(C(=O)O)cc2F)C(=O)C1=O (stereo partly drawn) [Example 20, 6-(2-(((R)-8-carboxy-2-hydroxy-3,4-dihydro-2H-benzo[e][1,2]oxaborinin-3-yl)amino)-1-(4-ethyl-2,3-dioxopiperazine-1-carboxamido)-2-oxoethyl)-5-fluoronicotinic acid] | > 128 | < 0.25 | 8 to 16 (≈ 14 to 28 µM) | 32 to 64 (≈ 56 to 112 µM) | > 128 | 2 to 4 (≈ 3.5 to 7 µM) | > 128 | > 128 | 32 to 64 (≈ 56 to 112 µM) | 8 to 16 (≈ 14 to 28 µM) | > 128 | 0.5 to 1 (≈ 0.875 to 1.75 µM)
11 | CCN1CCN(C(=O)NC(C(=O)N[C@H]2Cc3cccc(C(=O)O)c3OB2O)c2ccc(O)c(N(S(C)(=O)=O)S(C)(=O)=O)c2)C(=O)C1=O (stereo partly drawn) [Example 21, (3R)-3-(2-(4-ethyl-2,3-dioxopiperazine-1-carboxamido)-2-(4-hydroxy-3-(N-(methylsulfonyl)methylsulfonamido)phenyl)acetamido)-2-hydroxy-3,4-dihydro-2H-benzo[e][1,2]oxaborinine-8-carboxylic acid] | > 128 | < 0.25 | 2 to 4 (≈ 2.88 to 5.75 µM) | 32 to 64 (≈ 46 to 92 µM) | > 128 | 2 to 4 (≈ 2.88 to 5.75 µM) | > 128 | > 128 | 32 to 64 (≈ 46 to 92 µM) | 32 to 64 (≈ 46 to 92 µM) | > 128 | 2 to 4 (≈ 2.88 to 5.75 µM)
12 | CCN1CCN(C(=O)NC(C(=O)N[C@H]2Cc3cccc(C(=O)O)c3OB2O)c2ccc(O)c(NS(C)(=O)=O)c2)C(=O)C1=O (stereo partly drawn) [Example 22, (3R)-3-(2-(4-ethyl-2,3-dioxopiperazine-1-carboxamido)-2-(4-hydroxy-3-(methylsulfonamido)phenyl)acetamido)-2-hydroxy-3,4-dihydro-2H-benzo[e][1,2]oxaborinine-8-carboxylic acid] | > 128 | < 0.25 | 2 to 4 (≈ 3.24 to 6.48 µM) | 32 to 64 (≈ 51.8 to 104 µM) | 32 to 64 (≈ 51.8 to 104 µM) | 2 to 4 (≈ 3.24 to 6.48 µM) | > 128 | 32 to 64 (≈ 51.8 to 104 µM) | 32 to 64 (≈ 51.8 to 104 µM) | 8 to 16 (≈ 13 to 25.9 µM) | > 128 | 0.5 to 1 (≈ 0.81 to 1.62 µM)
13 | NCCN1CCN(C(=O)NC(C(=O)N[C@H]2Cc3ccc(F)c(C(=O)O)c3OB2O)c2nc(N)sc2F)C(=O)C1=O (stereo partly drawn) [Example 24, (3R)-3-(2-(2-amino-5-fluorothiazol-4-yl)-2-(4-(2-aminoethyl)-2,3-dioxopiperazine-1-carboxamido)acetamido)-7-fluoro-2-hydroxy-3,4-dihydro-2H-benzo[e][1,2]oxaborinine-8-carboxylic acid] | > 128 | 2 to 4 (≈ 3.44 to 6.88 µM) | 8 to 16 (≈ 13.8 to 27.5 µM) | 32 to 64 (≈ 55 to 110 µM) | 32 to 64 (≈ 55 to 110 µM) | 8 to 16 (≈ 13.8 to 27.5 µM) | > 128 | 32 to 64 (≈ 55 to 110 µM) | 32 to 64 (≈ 55 to 110 µM) | 32 to 64 (≈ 55 to 110 µM) | > 128 | 2 to 4 (≈ 3.44 to 6.88 µM)
